Non-standard residues stand in square brackets, D forms with d. Residues, ends and D or L forms follow the SMILES beside them. d(hArg(Et2)) = CCN=C(NCC)NCCCC[C@@H](N)C(=O)O; hArg(Et2) = CCN=C(NCC)NCCCC[C@H](N)C(=O)O; dPhe(4-Cl) = N[C@H](Cc1ccc(Cl)cc1)C(=O)O; d2Nal = N[C@H](Cc1ccc2ccccc2c1)C(=O)O; d3Pal = N[C@H](Cc1cccnc1)C(=O)O
Assays:
GnRH receptor [1] = biological target: T1, GnRH receptor (Homo sapiens, UniProt P30968); assay: Cohort study of oocyte donors in an assisted reproductive technology cycle: ovulation suppression during ovarian stimulation; assay type: in vivo; conditions: for premature ovulation: Elagolix 200 mg PO QHS vs Ganirelix 250 mcg SQ QHS, 75 donors per group; for Avg. Peak Estradiol / Avg. Peak LH / Avg. Peak Progesterone / Days of Stimulation / Avg. Matures Oocytes / Avg. Oocytes / Avg. Cum GN Dose: group mean; for Avg. Matures Oocytes: mature oocytes at retrieval; for Avg. Oocytes: oocytes retrieved; for Avg. Cum GN Dose: total gonadotropins consumed per cycle
T1 construct: from tissue; host or cells: anterior pituitary gland of the oocyte donors (in vivo)
T1 sequence (P30968 1-328): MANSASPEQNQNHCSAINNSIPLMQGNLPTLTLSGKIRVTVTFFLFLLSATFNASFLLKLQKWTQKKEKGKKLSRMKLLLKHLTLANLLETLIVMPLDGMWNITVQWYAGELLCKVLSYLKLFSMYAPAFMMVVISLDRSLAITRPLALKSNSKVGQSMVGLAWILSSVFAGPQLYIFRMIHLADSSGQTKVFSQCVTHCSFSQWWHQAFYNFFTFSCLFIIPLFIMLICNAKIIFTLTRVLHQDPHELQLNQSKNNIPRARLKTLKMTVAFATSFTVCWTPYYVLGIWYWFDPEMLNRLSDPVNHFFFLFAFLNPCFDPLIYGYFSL
Procedure: An example of a method of the present disclosure includes a Western IRB approved (WIRB® Protocol #20191163) cohort study of 75 oocyte donors undergoing an assisted reproductive technology cycle receiving Elagolix 200 mg PO QHS for ovulation suppression compared to 75 historical donors given Ganirelix 250 mcg SQ QHS. Ovarian stimulation involved 10 days of oral contraceptive pretreatment. A recombinant FSH (Gonal F) starting dosage was based on donor age, AMH and BMI. 20 U HCG addback was given throughout the cycle with antagonists administered with a lead follicle of greater than 14 mm. […] Secondary outcomes are the number of mature oocytes at oocyte retrieval, the maximum estradiol level, the total amount of gonadotropins consumed, and the number of injections and patient cost.
The study medication was an orally bioavailable GnRH antagonist marketed by ABBVIE under the brand name ORILISSA® (Elagolix). The 200 mg dose was administered orally with once daily dosing.
A study comprised 75 oocyte donors from whom data for 75 assisted reproductive technology cycles over the course of a two-year period was collected. Upon completion of data collection, a treatment group and an age and weight-matched control group were compared and assessed on the basis of demographic data, health history, ovarian reserve, and information regarding their ovarian stimulation cycles using Pearson χ2 and Student's t-tests. The primary outcome—premature ovulation rate—was evaluated using Chi squared tests. The secondary outcomes—number of mature oocytes, the maximum estradiol level, and the total amount of gonadotropins consumed—were compared using Student's t-tests.
Protocol for Oocyte Donation with Elagolix for Ovulation Suppression 1. Prospective donor accepted into FDA-accredited egg donation program after successful completion of screening and the signing of the medical consent forms. 2. Oocyte donor given opportunity to volunteer to participate in the study. Oocyte donor given an IRB approved informed consent document and HIPAA authorization for Oocyte Donation with Elagolix for Ovulation Suppression Protocol. 3. Oocyte donor begins oral contraceptives to lead into ovarian stimulation. 4. Oocyte donor discontinues oral contraceptives after 10 to 14 days of administration. 5. 3 days after discontinuing oral contraceptives, oocyte donor begins daily SQ injections of rFSH with the dose based upon age, follicle stimulating hormone (FSH), antimullerian hormone (AMH) and antral follicular count. 6. On day 4 of rFSH medications, the practitioner obtains an estradiol level from an oocyte donor. The rFSH dose will be adjusted as necessary. 7. At 2 to 3 days intervals of medications, the practitioner obtains an estradiol level and performs a transvaginal ultrasound for oocyte donor; an rFSH dose will be adjusted according to the results of the estradiol level and transvaginal ultrasound. 8. Once a 14 mm lead follicle is noted on the ultrasound, the practitioner administers 20 U per day of SQ hCG along with Elagolix 200 mg PO QD, taken at 10 pm. Elagolix is administered for a minimum of 1 day and a maximum of 6 days. 9. Administration of Elagolix 200 mg PO QD is discontinued 24 hours prior to the ovulatory, GnRH agonist trigger. 10. Ovarian stimulation is continued as outlined until oocyte maturity is reached based on follicular number, follicular size, cycle day and estradiol levels, at which time an ovulatory, GnRH agonist was used to induce ovulation and egg retrieval was performed per protocol. All mature eggs are either fertilized with the intended parent's sperm or cryopreserved for future used in egg donation.

[2] = oral administration; cited from earlier work
GnRH receptor [3] = biological target: T1, GnRH receptor; conditions: cited from earlier work

Structure (SMILES) | premature ovulation (GnRH receptor [1]) | Avg. Peak Estradiol (GnRH receptor [1]) | Avg. Peak LH (GnRH receptor [1]) | Avg. Peak Progesterone (GnRH receptor [1]) | Days of Stimulation (GnRH receptor [1]) | Avg. Matures Oocytes (GnRH receptor [1]) | Avg. Oocytes (GnRH receptor [1]) | Avg. Cum GN Dose (GnRH receptor [1]) | estimated half-life (t1/2) [2] [h] | median time of maximum plasma concentration (Tmax) [2] [h] | LH levels (GnRH receptor [3]; 4 hours after administration of a single dose) | time for LH concentrations to rebound to about baseline levels or above (GnRH receptor [3]; after the last dose, all dose levels) [h] | anovulatory concentrations (GnRH receptor [3]; all participants at doses of 100 mg BID or higher, maintained throughout the 7-day study with daily dosing) | estradiol concentration at maximum suppression (GnRH receptor [3]; all participants at doses of 200 mg BID and higher) [pg/mL] | estradiol remaining partially suppressed (GnRH receptor [3]; at 24 hours, most groups) | safety profile (GnRH receptor [3]; doses up to 400 mg twice per day (BID)) | adverse events (GnRH receptor [3]; healthy premenopausal women) | tolerability (GnRH receptor [3]; healthy premenopausal women) | dose giving maximum inhibition of LH (GnRH receptor [3]; more sustained suppression at higher doses) [mg BID]
COc1cccc(-c2c(C)n(Cc3c(F)cccc3C(F)(F)F)c(=O)n(C[C@H](NCCCC(=O)[O-])c3ccccc3)c2=O)c1F.[Na+] [Elagolix, 4-((R)-2-[5-(2-fluoro-3-methoxy-phenyl)-3-(2-fluoro-6-trifluoromethyl-benzyl)-4-methyl-2,6-dioxo-3,6-dihydro-2H-pyrimidin-1-yl]-1-phenyl-ethylamino)-butyric acid sodium salt] | no instances of premature ovulation | 3959 | 0.94 | 1.9 | 10.49 | 24.73 | 30.31 | 2855 | 4 to 6 | 0.5 to 1 | 22-35 % baseline | 24 to 48 | Anovulatory concentrations were observed in all participants | ~11.8 | 42-65 % of baseline | acceptable safety profile | No clinically significant adverse events occurred | well tolerated | ≥ 200
CCN=C(NCC)NCCCC[C@H](NC(=O)[C@H](CC(C)C)NC(=O)[C@@H](CCCCNC(=NCC)NCC)NC(=O)[C@H](Cc1ccc(O)cc1)NC(=O)[C@H](CO)NC(=O)[C@@H](Cc1cccnc1)NC(=O)[C@@H](Cc1ccc(Cl)cc1)NC(=O)[C@@H](Cc1ccc2ccccc2c1)NC(C)=O)C(=O)N1CCC[C@H]1C(=O)N[C@H](C)C(N)=O [Ganirelix] (Ac-[d2Nal][dPhe(4-Cl)][d3Pal]SY[d(hArg(Et2))]L[hArg(Et2)]P[dA]-NH2) | no instances of premature ovulation | 3764 | 1.3 | 2.3 | 10.06 | 25.42 | 30.55 | 2741 |  |  |  |  |  |  |  |  |  |  | 

Source: patent publication US20220378789A1, “METHODS OF ADMINISTERING ELAGOLIX IN ASSOCIATION WITH ARTIFICIAL REPRODUCTIVE TECHNOLOGIES” (priority 2021, published 2022)
